Reference: article PMC10060569 (Frontiers in Pharmacology, 2023)

Experiments:
[1] = target: T1, hP2X4R (Homo sapiens, UniProt Q99571); test: TEVC of ATP-induced currents, hP2X4R in X. laevis oocytes (steady-state protocol); format: cell-based
T1 construct: expressed in transfected cells; host or cells: Xenopus laevis oocytes (cRNA injection)
T1 sequence (Q99571 1-388): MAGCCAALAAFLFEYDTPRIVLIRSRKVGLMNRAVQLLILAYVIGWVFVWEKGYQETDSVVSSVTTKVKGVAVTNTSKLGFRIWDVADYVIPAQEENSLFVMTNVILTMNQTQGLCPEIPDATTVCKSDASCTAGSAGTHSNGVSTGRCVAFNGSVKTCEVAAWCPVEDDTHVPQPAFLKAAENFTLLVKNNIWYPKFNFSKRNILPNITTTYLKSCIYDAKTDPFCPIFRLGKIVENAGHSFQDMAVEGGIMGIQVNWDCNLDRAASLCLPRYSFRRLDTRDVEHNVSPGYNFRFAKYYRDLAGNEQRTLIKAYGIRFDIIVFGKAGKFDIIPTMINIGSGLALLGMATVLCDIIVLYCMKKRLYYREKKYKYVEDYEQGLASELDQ
Text: (§1) Oocyte expression plasmids encoding the wild-type (wt) and N-terminally His-tagged (His-) fusion constructs of the hP2X2R, hP2X3R, hP2X4R, and hP2X7R, and the mutant His-^20RMVL^23KVIV^23S^26N-hP2X1R, S^15V-rP2X3R, and His-S^15V-hP2X3R were the same as used in previous research ([Hausmann et al., 2006]; [Wolf et al., 2011]; [Hausmann et al., 2014]; [Obrecht et al., 2019]). In most cases, the N-terminal His-tagged variants of P2XRs were used here and in the previous studies to allow biochemical analyses on affinity-purified proteins using the same constructs. Although this was not required for the present study, it allows for better comparability with our previous studies. […]
(§2) Ion currents mediated by P2X receptors were evoked by the indicated concentration of ATP or α,β-meATP and were recorded 1 or 2 days after cRNA injection at ambient temperature at a holding potential of −60 mV by two-electrode voltage clamp (TEVC) as previously described ([Hausmann et al., 2006]). […]

[2] = cited from earlier work
[3] = target: T2, S15V-rP2X3R (Rattus norvegicus, UniProt P49654, S15V); test: TEVC of ATP-induced currents, S15V-rP2X3R expressed in X. laevis oocytes (peak current protocol); format: cell-based; settings: 1 µM ATP
T2 construct: expressed in transfected cells; host or cells: Xenopus laevis oocytes (cRNA injection)
T2 sequence (P49654 1-397 S15V): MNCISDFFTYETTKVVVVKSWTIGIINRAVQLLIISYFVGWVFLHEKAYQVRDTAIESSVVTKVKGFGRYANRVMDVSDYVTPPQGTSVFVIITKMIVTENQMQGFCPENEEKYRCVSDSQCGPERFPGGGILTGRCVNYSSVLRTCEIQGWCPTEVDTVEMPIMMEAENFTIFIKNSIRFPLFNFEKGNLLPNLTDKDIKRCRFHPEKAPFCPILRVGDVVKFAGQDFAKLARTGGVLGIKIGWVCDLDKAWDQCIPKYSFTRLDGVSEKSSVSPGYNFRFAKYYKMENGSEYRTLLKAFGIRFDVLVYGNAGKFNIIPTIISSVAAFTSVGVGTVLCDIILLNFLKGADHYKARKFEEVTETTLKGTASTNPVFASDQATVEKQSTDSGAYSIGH
Text: as §1, §2

IC50 ([3]; X. laevis oocytes) [µM]	inhibitory effect at 100 µM FFA ([3]; 100 µM FFA) [%]	Compound	IC50 ([1]; 10 µM ATP, steady-state protocol, X. laevis oocytes) [µM]	inhibition at 1000 µM ([1]; read-out: Max. inhibition at 1 mM) [%]	suspected cases of ageusia, dysgeusia, or taste disorders reported in the European Union ([2]; EudraVigilance up to 28/11/2022, ref http://www.adrreports.eu/de/)	patients reporting an impaired taste sensation ([2]; prospective randomized clinical trial, postoperative administration, ref Attri et al., 2015) [%]
		O=C(O)Cc1ccccc1Nc1c(Cl)cccc1Cl [Diclofenac, diclofenac]	1110	61.2	more than 110 cases	58
264	25	O=C(O)c1ccccc1Nc1cccc(C(F)(F)F)c1 [Flufenamic acid, flufenamic acid]				
